Test results: PubChem BioAssay (NCI)
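Following 48 hours of exposure in 96-well plates, responses at five concentrations were used to interpolate endpoints linearly. The concentration for full growth arrest is given as TGI.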

Legend:
Test in all cases: NCI tumour cell line growth inhibition, 48 h
COLO 205 colon = test system: COLO 205 colon
HOP-62 NSCLC = test system: HOP-62 NSCLC
PC-3 prostate = test system: PC-3 prostate
RPMI-8226 leukemia = test system: RPMI-8226 leukemia
SN12C renal = test system: SN12C renal
SW-620 colon = test system: SW-620 colon

Question: With `COc1ccc(/C(C)=N/NC(=S)N(C)C)c(O)c1` as the molecule, how does the TGI (COLO 205 colon) read?
Answer: 12.4 µM

Question: And the TGI (HOP-62 NSCLC)?
Answer: > 100 µM

Question: What about the TGI (PC-3 prostate) of the same molecule?
Answer: > 100 µM

Question: What about the TGI (RPMI-8226 leukemia) of the same molecule?
Answer: > 100 µM

Question: And the TGI (SN12C renal)?
Answer: > 100 µM

Question: And the TGI (SW-620 colon)?
Answer: > 100 µM
